The values below come from patent publication US20060040957A1, “BICYCLIC PYRIMIDINE MATRIX METALLOPROTEINASE INHIBITORS” (priority 2001, published 2006).

Holding throughout (type): biochemical
Assay [1] addresses T1, MMP-2FL (full length Gelatinase A) (Homo sapiens, UniProt P08253).
T1 sequence (P08253 110-660): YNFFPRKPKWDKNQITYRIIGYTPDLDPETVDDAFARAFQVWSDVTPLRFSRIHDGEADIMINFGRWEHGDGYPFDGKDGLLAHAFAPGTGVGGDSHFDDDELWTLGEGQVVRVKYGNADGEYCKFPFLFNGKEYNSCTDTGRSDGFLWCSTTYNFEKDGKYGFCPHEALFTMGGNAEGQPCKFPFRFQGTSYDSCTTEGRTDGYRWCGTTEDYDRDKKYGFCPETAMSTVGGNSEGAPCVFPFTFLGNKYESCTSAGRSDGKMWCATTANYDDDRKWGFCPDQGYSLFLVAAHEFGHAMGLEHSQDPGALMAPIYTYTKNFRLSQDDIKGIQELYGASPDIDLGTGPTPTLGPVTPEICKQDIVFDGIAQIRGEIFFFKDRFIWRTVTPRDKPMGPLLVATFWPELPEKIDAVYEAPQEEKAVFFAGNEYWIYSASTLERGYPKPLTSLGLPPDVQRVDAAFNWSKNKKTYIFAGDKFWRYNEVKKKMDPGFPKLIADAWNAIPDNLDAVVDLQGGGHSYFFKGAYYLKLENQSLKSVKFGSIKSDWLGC
In words: Thiopeptolide substrate hydrolysis assay, MMP-2FL. The conditions noted are these: HEPES pH 7.0, 22° C., read-out: IC50 (μM) Versus Certain MMPs: MMP-02 FL. An excerpt:
(§1) The invention compounds of Formula I have been evaluated in standard assays for their ability to inhibit the catalytic activity of various MMP enzymes.
(§2) Thiopeptolide substrates show virtually no decomposition or hydrolysis at or below neutral pH in the absence of a matrix metalloproteinase enzyme.
(§3) Several representative compounds have been evaluated for their ability to inhibit various matrix metalloproteinase enzymes.

For assay [2], the target named is T2, MMP-7FL (full length matrilysin) (Homo sapiens, UniProt P09237).
T2 sequence (P09237 95-267): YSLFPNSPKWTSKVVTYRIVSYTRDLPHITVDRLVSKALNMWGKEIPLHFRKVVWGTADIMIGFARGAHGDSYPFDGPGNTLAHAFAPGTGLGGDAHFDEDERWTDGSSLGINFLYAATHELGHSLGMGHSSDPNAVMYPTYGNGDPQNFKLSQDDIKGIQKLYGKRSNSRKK
In words: Thiopeptolide substrate hydrolysis assay, MMP-7FL. The conditions noted are these: HEPES pH 7.0, 22° C., read-out: IC50 (μM) Versus Certain MMPs: MMP-07 FL.
Source text: as §1, §2, §3

In assay [3] the target is MMP-9FL (full length Gelatinase B) (Homo sapiens, UniProt P14780). The assay is described as follows: Thiopeptolide substrate hydrolysis assay, MMP-9FL. The conditions noted are these: HEPES pH 7.0, 22° C., read-out: IC50 (μM) Versus Certain MMPs: MMP-09 FL.
Source text: as §1, §2, §3

For assay [4], the target named is MMP-14CD (catalytic domain of MMP-14) (Homo sapiens, UniProt P50281). In words: Thiopeptolide substrate hydrolysis assay, MMP-14CD. The conditions noted are these: HEPES pH 7.0, 22° C., read-out: IC50 (μM) Versus Certain MMPs: MMP-14 CD.
Source text: as §1, §2, §3

The structures appear in SMILES notation. Counter-ions that a name gives are not always drawn. Some results are limits rather than exact numbers.

Sequence of MMP-9FL (full length Gelatinase B) (P14780 94-707, species assumed): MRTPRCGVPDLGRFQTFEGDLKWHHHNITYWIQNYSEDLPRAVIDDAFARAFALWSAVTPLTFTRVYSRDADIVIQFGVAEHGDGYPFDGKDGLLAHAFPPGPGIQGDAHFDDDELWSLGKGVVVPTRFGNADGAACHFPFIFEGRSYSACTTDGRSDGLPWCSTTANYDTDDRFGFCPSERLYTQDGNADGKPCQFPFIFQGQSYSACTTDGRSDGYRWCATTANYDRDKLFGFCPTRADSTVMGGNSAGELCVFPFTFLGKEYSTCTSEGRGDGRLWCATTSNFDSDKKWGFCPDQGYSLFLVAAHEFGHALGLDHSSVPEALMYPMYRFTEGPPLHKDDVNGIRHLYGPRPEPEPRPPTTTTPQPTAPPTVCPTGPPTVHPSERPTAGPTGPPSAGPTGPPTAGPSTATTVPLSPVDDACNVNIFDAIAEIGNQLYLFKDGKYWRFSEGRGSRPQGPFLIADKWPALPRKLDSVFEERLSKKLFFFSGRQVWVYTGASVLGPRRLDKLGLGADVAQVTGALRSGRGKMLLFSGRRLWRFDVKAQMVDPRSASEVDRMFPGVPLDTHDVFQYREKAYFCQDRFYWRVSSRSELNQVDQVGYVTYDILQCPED

On to `Cc1ccc(CNC(=O)c2cn3c(=O)n(Cc4ccccc4)c(=O)c(C)c3s2)cc1` [Example 48, 6-Benzyl-8-methyl-5,7-dioxo-6,7-dihydro-5H-thiazolo[3,2-c]pyrimidine-2-carboxylic acid 4-methyl-benzylamide], for which the IC50 (in general, the concentration needed to halve the response being measured) in assay [1] is above 30 µM; in assay [2], 28 µM; in assay [3], above 100 µM; in assay [4], above 100 µM.
Turning to `Cc1c(=O)n(Cc2ccc(Br)cc2)c(=O)n2cc(C(=O)NCc3ccncc3)sc12` [Example 71, 6-(4-Bromo-benzyl)-8-methyl-5,7-dioxo-6,7-dihydro-5H-thiazolo[3,2-c]pyrimidine-2-carboxylic acid(pyridin-4-ylmethyl)-amide hydrochloride], the IC50 in assay [1], in assay [2], in assay [3] and in assay [4] was above 30 µM in each case.
With `Cc1c(=O)n(Cc2ccc(C(=O)N3CCOCC3)cc2)c(=O)n2cc(C(=O)NCc3ccc(F)cc3)sc12` [Example 76, 8-Methyl-6-[4-(morpholine-4-carbonyl)-benzyl]-5,7-dioxo-6,7-dihydro-5H-thiazolo[3,2-c]pyrimidine-2-carboxylic acid 4-fluoro-benzylamide], the IC50 in assay [1], in assay [2], in assay [3] and in assay [4] was above 30 µM throughout.
For the molecule `Cc1c(=O)n(Cc2ccc(-c3nn[nH]n3)cc2)c(=O)n2cc(C(=O)NCc3ccc(F)cc3)sc12` [Example 75, 8-Methyl-5,7-dioxo-6-[4-(2H-tetrazol-5-yl)-benzyl]-6,7-dihydro-5H-thiazolo[3,2-c]pyrimidine-2-carboxylic acid 4-fluoro-benzylamide], the IC50 in assay [1], in assay [2], in assay [3] and in assay [4] was above 100 µM in each case.
Regarding `Cc1c(=O)n(Cc2ccc3oc(=O)ccc3c2)c(=O)n2cc(C(=O)NCc3ccc(F)cc3)sc12` [Example 80, 8-Methyl-5,7-dioxo-6-(2-oxo-2H-1-benzopyran-6-ylmethyl)-6,7-dihydro-5H-thiazolo[3,2-c]pyrimidine-2-carboxylic acid 4-fluoro-benzylamide], the IC50 in assay [1], in assay [2], in assay [3] and in assay [4] was above 30 µM throughout.
In the case of `Cc1c(=O)n(Cc2ccccc2)c(=O)n2cc(C(=O)NCc3cccc(F)c3)sc12` [Example 10, 6-Benzyl-8-methyl-5,7-dioxo-6,7-dihydro-5H-thiazolo[3,2-c]pyrimidine-2-carboxylic acid 3-fluoro-benzylamide], the IC50 in assay [1] is above 100 µM; in assay [2], 21 µM; in assay [3], above 30 µM; in assay [4], above 30 µM.
Take `COc1ccc(CNC(=O)c2cn3c(=O)n(Cc4ccccc4)c(=O)c(C=O)c3s2)cc1` [Example 32, 6-Benzyl-8-formyl-5,7-dioxo-6,7-dihydro-5H-thiazolo[3,2-c]pyrimidine-2-carboxylic acid 4-methoxy-benzylamide]: the IC50 in assay [1] is above 100 µM; in assay [2], above 30 µM; in assay [3] it was above 100 µM; in assay [4], above 30 µM.
As for `O=C(NCc1ccccc1)c1cn2c(=O)n(Cc3ccncc3)c(=O)cc2s1` [Example 15, 6-(4-Pyridylmethyl)-5,7-dioxo-6,7-dihydro-5H-thiazolo[3,2-c]pyrimidine-2-carboxylic acid benzylamide hydrochloride], the IC50 in assay [1], in assay [2], in assay [3] and in assay [4] was above 100 µM throughout.
As for `COc1ccc(CNC(=O)c2cn3c(=O)n(Cc4ccc(C(=O)OCCN(C)C)cc4)c(=O)c(C)c3s2)cc1` [Example 57, 4-[2-(4-Methoxy-benzylcarbamoyl)-8-methyl-5,7-dioxo-7H-thiazolo[3,2c]pyrimidin-6-ylmethyl]-benzoic acid 2-dimethylamine-ethyl ester hydrochloride], the half-maximal inhibitory concentration (IC50) in assay [1], in assay [2], in assay [3] and in assay [4] was above 30 µM each time.
As for `Cc1c(=O)n(Cc2ccc(C(=O)OCCN(C)C)cc2)c(=O)n2cc(C(=O)NCc3ccncc3)sc12` [Example 63, 4-{8-Methyl-5,7-dioxo-2-[(pyridin-4-ylmethyl)-carbamoyl]-7H-thiazolo[3,2-c]pyrimidin-6-ylmethyl}-benzoic acid 2-dimethylamino-ethyl ester dihydrochloride], the IC50 in assay [1], in assay [2], in assay [3] and in assay [4] was above 100 µM each time.
`COC(=O)Nc1cc(Cn2c(=O)c(C)c3sc(C(=O)NCc4ccc(F)cc4)cn3c2=O)on1` [Example 74, {5-[2-(4-Fluoro-benzylcarbamoyl)-8-methyl-5,7-dioxo-7H-thiazolo[3,2-c]pyrimidin-6-ylmethyl]-isoxazol-3-yl}-carbamic acid methyl ester]: the IC50 in assay [1] is above 30 µM; in assay [2], 87 µM; in assay [3], above 30 µM; in assay [4], above 30 µM.
Regarding `COc1ccc(CNC(=O)c2cn3c(=O)n(Cc4ccccc4)c(=O)c(C)c3s2)cc1F` [Example 46, 6-Benzyl-8-methyl-5,7-dioxo-6,7-dihydro-5H-thiazolo[3,2-c]pyrimidine-2-carboxylic acid 3-fluoro-4-methoxy-benzylamide], the IC50 in assay [1] is above 100 µM; in assay [2], above 30 µM; in assay [3], above 100 µM; in assay [4] it was above 100 µM.
Turning to `O=C(NCc1ccncc1)C1Cn2c(cc(=O)n(Cc3ccccc3)c2=O)S1` (stereo not drawn) [Example 22, 6-Benzyl-5,7-dioxo-2,3,6,7-tetrahydro-5H-thiazolo[3,2-c]pyrimidine-2-carboxylic acid(pyridin-4-ylmethyl)-amide], the IC50 in assay [1], in assay [2], in assay [3] and in assay [4] was above 100 µM each time.
For `Cc1c(=O)n(Cc2ccc(S(N)(=O)=O)cc2)c(=O)n2cc(C(=O)NCc3ccncc3)sc12` [Example 84, 8-Methyl-5,7-dioxo-6-(4-sulfamoyl-benzyl)-6,7-dihydro-5H-thiazolo[3,2-c]pyrimidine-2-carboxylic acid(pyridin-4-ylmethyl)-amide hydrochloride], the IC50 in assay [1], in assay [2], in assay [3] and in assay [4] was above 100 µM each time.
Consider `Cc1c(=O)n(Cc2ccccc2)c(=O)n2cc(C(=O)NCc3ccc(F)cc3)sc12` [Example 30, 6-Benzyl-8-methyl-5,7-dioxo-6,7-dihydro-5H-thiazolo[3,2-c]pyrimidine-2-carboxylic acid 4-fluoro-benzylamide], for which the IC50 in assay [1], in assay [2], in assay [3] and in assay [4] was above 30 µM throughout.
On to `Cc1c(=O)n(Cc2ccc3cc(F)ccc3n2)c(=O)n2cc(C(=O)NCc3ccc(F)cc3)sc12` [Example 77, 6-(6-Fluoro-quinolin-2-ylmethyl)-8-methyl-5,7-dioxo-6,7-dihydro-5H-thiazolo[3,2-c]pyrimidine-2-carboxylic acid 4-fluoro-benzylamide], for which the IC50 in assay [1], in assay [2], in assay [3] and in assay [4] was above 30 µM in each case.
As to `CC#CCn1c(=O)c(C)c2sc(C(=O)NCc3ccc(F)cc3)cn2c1=O` [Example 79, 6-But-2-ynyl-8-methyl-5,7-dioxo-6,7-dihydro-5H-thiazolo[3,2-c]pyrimidine-2-carboxylic acid 4-fluoro-benzylamide], the IC50 in assay [1], in assay [2], in assay [3] and in assay [4] was above 100 µM each time.
For the molecule `Cc1c(=O)n(Cc2ccccc2)c(=O)n2cc(C(=O)NCc3ccc(OC(F)(F)F)cc3)sc12` [Example 51, 6-Benzyl-8-methyl-5,7-dioxo-6,7-dihydro-5H-thiazolo[3,2-c]pyrimidine-2-carboxylic acid 4-trifluoromethoxy-benzylamide], the IC50 in assay [1] was above 30 µM; in assay [2] it was above 30 µM; in assay [3] it was above 100 µM; in assay [4], above 100 µM.
